{"source": "patent US20110039763A1", "about": "“TARGETED ANTIMICROBIAL MOIETIES” (C3 JIAN, INC., priority 2009, published 2011)", "tested_on": "microorganisms", "assay": "Morphology, biofilm and growth disrupting peptides (Table 5)", "format": "cell-based", "parameters": "key: A: Peptide aggregates; B: Less hyphal formation; Clumps; Diffuse clumps and small polyps; F: Diffuse growth; H: Thin; I: Growth inhibition; Microcolony formation; Rippled; Small polyps; Thick; W: Halo formation on top, microlonies on bottom", "from_the_text": "In certain embodiments peptides that induce alterations in phenotype or other biological activities can also be used as antimicrobial effector moieties.", "data": [{"substance": "DLLKSLLGQDGAKNDEIIEFIKIIMEK [PF-591]", "values": [{"measurement": "Organism, effect", "setting": "C. jejuni", "value": "C. jejuni (C)"}, {"measurement": "Organism, effect", "setting": "E. faecalis", "value": "E. faecalis (A)"}, {"measurement": "Organism, effect", "setting": "S. pneumoniae", "value": "S. pneumoniae (R)"}]}, {"substance": "KTPNDKIHKTIIIKHIIL [PF-533]", "values": [{"measurement": "Organism, effect", "setting": "E. coli", "value": "E. coli (R)"}, {"measurement": "Organism, effect", "setting": "E. faecalis", "value": "E. faecalis (C)"}, {"measurement": "Organism, effect", "setting": "MRSA", "value": "MRSA (H)"}, {"measurement": "Organism, effect", "setting": "S. epidermidis", "value": "S. epidermidis (H)"}, {"measurement": "Organism, effect", "setting": "S. pneumoniae", "value": "S. pneumoniae (C)"}]}, {"substance": "PF-019 (NDTNK; Peptide with targeting and/or antimicrobial activity)", "values": [{"measurement": "Organism, effect: MRSA", "setting": "MRSA", "value": "MRSA (M)"}]}, {"substance": "PF-032 (RIVVPAHQSNMASTPNLSITP; Peptide with targeting and/or antimicrobial activity)", "values": [{"measurement": "Organism, effect: C. jeikeium", "value": "C. jeikeium (C)"}, {"measurement": "Organism, effect: S. epidermidis", "setting": "S. epidermidis", "value": "S. epidermidis (S)"}]}, {"substance": "PF-059 (TITLKAGIERALHEEVPGVIEVEQVF; Peptide with targeting and/or antimicrobial activity)", "values": [{"measurement": "Organism, effect: C. jejuni", "setting": "C. jejuni", "value": "C. jejuni (C)"}]}, {"substance": "PF-199 (FPAFSFGAIAGSVSVAR; Peptide with targeting and/or antimicrobial activity)", "values": [{"measurement": "Organism, effect: C. jeikeium", "value": "C. jeikeium (R)"}, {"measurement": "Organism, effect: M. luteus", "setting": "M. luteus", "value": "M. luteus (A)"}, {"measurement": "Organism, effect: S. epidermidis", "setting": "S. epidermidis", "value": "S. epidermidis (C)"}]}, {"substance": "PF-220 (VDPADDGTRHIRPEDGDPIEIDE; Peptide with targeting and/or antimicrobial activity)", "values": [{"measurement": "Organism, effect: S. pneumoniae", "setting": "S. pneumoniae", "value": "S. pneumoniae (H)"}]}, {"substance": "PF-250 (SEDIFGRLANEKANGLEELRKIRLKQ; Peptide with targeting and/or antimicrobial activity)", "values": [{"measurement": "Organism, effect: M. luteus", "setting": "M. luteus", "value": "M. luteus (T)"}]}, {"substance": "PF-264 (MQSLSNRQSLIASYILMGIFLSFGYPPASLSKFFCRLSHL; Peptide with targeting and/or antimicrobial activity)", "values": [{"measurement": "Organism, effect: M. luteus", "setting": "M. luteus", "value": "M. luteus (H)"}]}, {"substance": "PF-274 (SIQEAEKIIKNDPFYIHDVADYDFMWFEPSKSLEEIKEFV; Peptide with targeting and/or antimicrobial activity)", "values": [{"measurement": "Organism, effect: M. luteus", "setting": "M. luteus", "value": "M. luteus (M)"}]}, {"substance": "PF-290 (MVHDMTNGTLIIVKH; Peptide with targeting and/or antimicrobial activity)", "values": [{"measurement": "Organism, effect: S. epidermidis", "setting": "S. epidermidis", "value": "S. epidermidis (C)"}]}, {"substance": "PF-293 (YDPLK; Peptide with targeting and/or antimicrobial activity)", "values": [{"measurement": "Organism, effect: S. epidermidis", "setting": "S. epidermidis", "value": "S. epidermidis (C)"}]}, {"substance": "PF-296 (GAFGMPSIKTNTICGEKGKFISACDAWLSNLK; Peptide with targeting and/or antimicrobial activity)", "values": [{"measurement": "Organism, effect: B. subtilis", "setting": "B. subtilis", "value": "B. subtilis (C)"}, {"measurement": "Organism, effect: S. epidermidis", "setting": "S. epidermidis", "value": "S. epidermidis (C)"}]}, {"substance": "PF-303 (EYPWSWISEPWPWDKSFYK; Peptide with targeting and/or antimicrobial activity)", "values": [{"measurement": "Organism, effect: B. subtilis", "setting": "B. subtilis", "value": "B. subtilis (C)"}]}, {"substance": "PF-310 (GVALIGTILVPLLSGLFG; Peptide with targeting and/or antimicrobial activity)", "values": [{"measurement": "Organism, effect: S. epidermidis", "setting": "S. epidermidis", "value": "S. epidermidis (C)"}]}, {"substance": "PF-318 (MGRHLWNPSYFVATVSENTEEQIRKYINNQKKQVK; Peptide with targeting and/or antimicrobial activity)", "values": [{"measurement": "Organism, effect: B. subtilis", "setting": "B. subtilis", "value": "B. subtilis (C)"}, {"measurement": "Organism, effect: S. epidermidis", "setting": "S. epidermidis", "value": "S. epidermidis (C)"}]}, {"substance": "PF-335 (AAYPIEDWSDWYEDFFIMLSNI; Peptide with targeting and/or antimicrobial activity)", "values": [{"measurement": "Organism, effect: B. subtilis", "setting": "B. subtilis", "value": "B. subtilis (C)"}, {"measurement": "Organism, effect: S. epidermidis", "setting": "S. epidermidis", "value": "S. epidermidis (C)"}]}, {"substance": "PF-339 (KKIDILINKYMYLSK; Peptide with targeting and/or antimicrobial activity)", "values": [{"measurement": "Organism, effect: B. subtilis", "setting": "B. subtilis", "value": "B. subtilis (C)"}, {"measurement": "Organism, effect: S. epidermidis", "setting": "S. epidermidis", "value": "S. epidermidis (C)"}]}, {"substance": "PF-342 (AFSGVYKTLIVYTRRK; Peptide with targeting and/or antimicrobial activity)", "values": [{"measurement": "Organism, effect: B. subtilis", "setting": "B. subtilis", "value": "B. subtilis (C)"}, {"measurement": "Organism, effect: S. epidermidis", "setting": "S. epidermidis", "value": "S. epidermidis (C)"}]}, {"substance": "PF-415 (MIDVTIGQKSKTGAFNASYSICFSGENFSF; Peptide with targeting and/or antimicrobial activity)", "values": [{"measurement": "Organism, effect: S. pneumoniae", "setting": "S. pneumoniae", "value": "S. pneumoniae (D)"}]}, {"substance": "PF-419 (VVTGKVGSLPQIK; Peptide with targeting and/or antimicrobial activity)", "values": [{"measurement": "Organism, effect: S. pneumoniae", "setting": "S. pneumoniae", "value": "S. pneumoniae (H)"}]}, {"substance": "PF-449 (MPTTKSKQKGWTNTKKASNTQ; Peptide with targeting and/or antimicrobial activity)", "values": [{"measurement": "Organism, effect", "setting": "S. pneumoniae", "value": "S. pneumoniae (H)"}]}, {"substance": "PF-455 (MARNDDDIKKIKGTLGQSPEVYGERKLPYT; Peptide with targeting and/or antimicrobial activity)", "values": [{"measurement": "Organism, effect", "setting": "S. pneumoniae", "value": "S. pneumoniae (A)"}]}, {"substance": "PF-468 (EDNKDKKDKKDK; Peptide with targeting and/or antimicrobial activity)", "values": [{"measurement": "Organism, effect", "setting": "S. pneumoniae", "value": "S. pneumoniae (H)"}]}, {"substance": "PF-485 (KNSMSRSIALID; Peptide with targeting and/or antimicrobial activity)", "values": [{"measurement": "Organism, effect", "setting": "S. pneumoniae", "value": "S. pneumoniae (A)"}]}, {"substance": "PF-532 (KFIYKYKLSFIIYKILIQTLTMELNK; Peptide with targeting and/or antimicrobial activity)", "values": [{"measurement": "Organism, effect", "setting": "E. coli", "value": "E. coli (C)"}, {"measurement": "Organism, effect", "setting": "E. faecalis", "value": "E. faecalis (C)"}, {"measurement": "Organism, effect", "setting": "MRSA", "value": "MRSA (C)"}, {"measurement": "Organism, effect", "setting": "S. pneumoniae", "value": "S. pneumoniae (C)"}]}, {"substance": "PF-534 (KYFHLFYHNIIHYSKQHLSLKVDFKN; Peptide with targeting and/or antimicrobial activity)", "values": [{"measurement": "Organism, effect", "setting": "E. coli", "value": "E. coli (R)"}, {"measurement": "Organism, effect", "setting": "E. faecalis", "value": "E. faecalis (C)"}, {"measurement": "Organism, effect", "setting": "MRSA", "value": "MRSA (C)"}, {"measurement": "Organism, effect", "setting": "S. epidermidis", "value": "S. epidermidis (C)"}, {"measurement": "Organism, effect", "setting": "S. pneumoniae", "value": "S. pneumoniae (R)"}]}, {"substance": "PF-535 (NIKTRKRALKIIKQHQRSK; Peptide with targeting and/or antimicrobial activity)", "values": [{"measurement": "Organism, effect", "setting": "P. aeruginosa", "value": "P. aeruginosa (H)"}, {"measurement": "Organism, effect", "setting": "S. pneumoniae", "value": "S. pneumoniae (H)"}]}, {"substance": "PF-536 (MEPIPHIMIIANQIGIIIEKA; Peptide with targeting and/or antimicrobial activity)", "values": [{"measurement": "Organism, effect", "setting": "E. coli", "value": "E. coli (R)"}, {"measurement": "Organism, effect", "setting": "E. faecalis", "value": "E. faecalis (C)"}, {"measurement": "Organism, effect", "setting": "MRSA", "value": "MRSA (C)"}, {"measurement": "Organism, effect", "setting": "P. aeruginosa", "value": "P. aeruginosa (H)"}, {"measurement": "Organism, effect", "setting": "S. epidermidis", "value": "S. epidermidis (C)"}, {"measurement": "Organism, effect", "setting": "S. pneumoniae", "value": "S. pneumoniae (M)"}]}, {"substance": "PF-541 (RRNLNSPNIKTRKRALKIIKQHQRSK; Peptide with targeting and/or antimicrobial activity)", "values": [{"measurement": "Organism, effect", "setting": "E. coli", "value": "E. coli (H)"}, {"measurement": "Organism, effect", "setting": "S. pneumoniae", "value": "S. pneumoniae (H)"}]}, {"substance": "PF-561 (ESLEADVQAELDTEAAKYPALPASF; Peptide with targeting and/or antimicrobial activity)", "values": [{"measurement": "Organism, effect", "setting": "B. subtilis", "value": "B. subtilis (D)"}, {"measurement": "Organism, effect", "setting": "MRSA", "value": "MRSA (M)"}]}, {"substance": "PF-565 (RAEAEAQRQAEADAKRKAEEAARL; Peptide with targeting and/or antimicrobial activity)", "values": [{"measurement": "Organism, effect", "setting": "B. subtilis", "value": "B. subtilis (D)"}, {"measurement": "Organism, effect", "setting": "MRSA", "value": "MRSA (C)"}]}, {"substance": "PF-571 (SDLLYYPNENREDSPAGVVKEVKE; Peptide with targeting and/or antimicrobial activity)", "values": [{"measurement": "Organism, effect", "setting": "B. subtilis", "value": "B. subtilis (D)"}]}, {"substance": "PF-574 (LVKSGKLESPYEHSEHLTLSQEKGLE; Peptide with targeting and/or antimicrobial activity)", "values": [{"measurement": "Organism, effect", "setting": "B. subtilis", "value": "B. subtilis (D)"}]}, {"substance": "PF-582 (NLKTIEKECPFCNNKMDIKLKD; Peptide with targeting and/or antimicrobial activity)", "values": [{"measurement": "Organism, effect", "setting": "E. faecalis", "value": "E. faecalis (A)"}]}, {"substance": "PF-618 (KLNTLNKKDNPSLNDQDKNAVLNLLALAK; Peptide with targeting and/or antimicrobial activity)", "values": [{"measurement": "Organism, effect", "setting": "E. faecalis", "value": "E. faecalis (H)"}, {"measurement": "Organism, effect", "setting": "S. pneumoniae", "value": "S. pneumoniae (I)"}]}, {"substance": "PF-624 (VFLLDSYCFVKINL; Peptide with targeting and/or antimicrobial activity)", "values": [{"measurement": "Organism, effect", "setting": "E. coli", "value": "E. coli (C)"}, {"measurement": "Organism, effect", "setting": "M. luteus", "value": "M. luteus (C)"}, {"measurement": "Organism, effect", "setting": "MRSA", "value": "MRSA (C)"}, {"measurement": "Organism, effect", "setting": "P. mirabilis", "value": "P. mirabilis (C)"}, {"measurement": "Organism, effect", "setting": "S. epidermidis", "value": "S. epidermidis (D)"}, {"measurement": "Organism, effect", "setting": "S. mutans", "value": "S. mutans (D)"}, {"measurement": "Organism, effect", "setting": "S. pneumoniae", "value": "S. pneumoniae (D)"}]}, {"substance": "PF-670 (chain 1 TVIVAPMHSGV; chain 2 TVIVAPMHSGV; Peptide with targeting and/or antimicrobial activity)", "values": [{"measurement": "Organism, effect", "setting": "B. subtilis", "value": "B. subtilis (H)"}, {"measurement": "Organism, effect", "setting": "S. pneumoniae", "value": "S. pneumoniae (H)"}]}, {"substance": "PF-C089 (MPKRHYYKLEAKALQFGLPFAYSPIQLLK; Peptide with targeting and/or antimicrobial activity)", "values": [{"measurement": "Organism, effect", "setting": "P. gingivalis", "value": "P. gingivalis (R)"}]}, {"substance": "PF-C214 (GGHKQLVIEPLVSQ; Peptide with targeting and/or antimicrobial activity)", "values": [{"measurement": "Organism, effect", "setting": "F. nucleatum", "value": "F. nucleatum (T)"}]}, {"substance": "PF-C293 (IIIILPKIYLVCKTV; Peptide with targeting and/or antimicrobial activity)", "values": [{"measurement": "Organism, effect", "setting": "F. nucleatum", "value": "F. nucleatum (T)"}, {"measurement": "Organism, effect", "setting": "P. gingivalis", "value": "P. gingivalis (R)"}, {"measurement": "Organism, effect", "setting": "S. mutans", "value": "S. mutans (F)"}]}]}
